Where a name gives a salt, the structure may show the parent alone.
biological target: T1, TBK1 (Homo sapiens, UniProt Q9UHD2); experiment: TBK1 protein kinase assay ([γ-33P]ATP, P81 filterplates); assay type: biochemical; conditions: 50 μM ATP; read-out: Potency (TBK1 IC50 potency score)
T1 construct: All protein kinases were of human origin and encoded full length proteins, unless indicated otherwise; His6; made in house; host or cells: insect Sf21 cells
T1 sequence (Q9UHD2 1-729): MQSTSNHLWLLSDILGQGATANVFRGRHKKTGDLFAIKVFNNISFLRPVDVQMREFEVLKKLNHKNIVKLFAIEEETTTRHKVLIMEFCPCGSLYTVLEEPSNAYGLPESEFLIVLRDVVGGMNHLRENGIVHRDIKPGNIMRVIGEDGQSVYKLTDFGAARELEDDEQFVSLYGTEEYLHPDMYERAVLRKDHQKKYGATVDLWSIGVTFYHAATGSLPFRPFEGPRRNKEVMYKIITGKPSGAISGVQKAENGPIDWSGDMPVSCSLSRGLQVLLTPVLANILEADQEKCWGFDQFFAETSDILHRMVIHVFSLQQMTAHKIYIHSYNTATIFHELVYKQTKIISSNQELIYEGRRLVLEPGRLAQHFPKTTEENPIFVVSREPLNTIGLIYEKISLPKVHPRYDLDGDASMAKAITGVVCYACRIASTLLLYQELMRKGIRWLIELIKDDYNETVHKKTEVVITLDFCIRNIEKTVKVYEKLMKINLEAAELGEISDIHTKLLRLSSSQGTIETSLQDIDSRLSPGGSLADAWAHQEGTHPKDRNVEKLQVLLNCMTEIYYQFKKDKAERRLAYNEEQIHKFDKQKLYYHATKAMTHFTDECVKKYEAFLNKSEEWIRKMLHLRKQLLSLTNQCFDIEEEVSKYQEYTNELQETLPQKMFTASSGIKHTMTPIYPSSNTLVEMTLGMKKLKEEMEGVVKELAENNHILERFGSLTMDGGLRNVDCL
Excerpt: All protein kinases were of human origin and encoded full length proteins, unless indicated otherwise. They were either expressed as glutathione S-transferase (GST) fusion proteins in Escherichia Coli or as hexahistidine (His6)-tagged proteins in insect Sf21 cells. GST fusion proteins were purified by affinity chromatography on glutathione-Sepharose, and His6-tagged proteins on nickel/nitriloacetate-agarose. The procedures for expressing some of the protein kinases used herein have been detailed previously.^8,9 The following sections outline the DNA vectors synthesised and the procedures used to express and purifying protein kinases that have not been reported previously.
The following kinases were expressed in Sf21 cells: Aurora B and Aurora C, extra-cellular signal-regulated kinase 8 (ERK8), microtubule affinity regulating kinase 3 (MARK3), protein kinase Bα[118-480][S473D], protein kinase Bβ (PKBβ[120-481][S474D], 3-phosphoinositide-dependent protein kinase-1 [52-556]
Assays were performed for 30 min using Multidrop Micro reagent dispensers (Thermo Electron Corporation, Waltham, Mass. 02454, USA) in a 96-well format. The concentration of magnesium acetate in the assays was 10 mM and the [γ-33P] ATP (800 cpm/pmol) was used at 5, 20 or 50 μM as indicated, in order to be at or below the Km for ATP for each enzyme. Protein kinases assayed at 5 μM ATP were: —ERK1, ERK8, PKBα, MARK3, Aurora C. Protein kinases assayed at 20 μM ATP were: —JNK1, PDK1, CHK1, CHK2, CDK2 and Aurora B. Protein kinases assayed at 50 μM ATP were: —MNK2, IKKepsilon and TBK1.
The assays were initiated with MgATP, stopped by addition of 5 μl of 0.5 M orthophosphoric acid and spotted on to P81 filterplates using a unifilter harvester (PerkinElmer, Boston, Mass. 02118, USA). The IC50 values of inhibitors were determined after carrying out assays at 10 different concentrations of each compound.
ERK1 and ERK8 were both assayed against myelin basic protein (MBP, 0.33 mg/ml). MARK3 was assayed against the peptide […] (300 μM), MNK2 against the eIF4E protein (0.5 mg/ml). PKBβ was assayed against the peptide […] (30 μM). TBK1 were assayed against ([…]) (300 μM). The substrates used for other protein kinases were described previously.^8,9
Unless stated otherwise, enzymes were diluted in 50 mM Tris/HCl pH 7.5, 0.1 mM EGTA, 1 mg/ml BSA, 0.1% (v/v) 2-mercaptoethanol and assayed in 50 mM Tris/HCl pH 7.5, 0.1 mM EGTA, 0.1% (v/v) 2-mercaptoethanol.

| IC50 | Structure (SMILES) |
| --- | --- |
| 100 to 1000 nM | NC(=O)c1cccc(Nc2ncc(C3CC3)c(NCCCNC(=O)c3cccs3)n2)c1 [Example 36, Thiophene-2-carboxylic acid {3-[2-(3-carbamoyl-phenylamino)-5-cyclopropyl-pyrimidin-4-ylamino]-propyl}-amide trifluoroacetic acid salt] |
| < 100 nM | O=C(NCCCNc1nc(Nc2ccc3ncsc3c2)ncc1C1CC1)c1cccs1 [Example 37, Thiophene-2-carboxylic acid {3-[2-(benzothiazol-6-ylamino)-5-cyclopropyl-pyrimidin-4-ylamino]-propyl}-amide. Hydrochloride salt] |
| 100 to 1000 nM | O=C1CCCN1CCCNc1nc(Nc2cccc(F)c2)ncc1C1CC1 [Example 38, 1-{3-[5-Cyclopropyl-2-(3-fluoro-phenylamino)-pyrimidin-4-ylamino]-propyl}-pyrrolidin-2-one] |
| 100 to 1000 nM | CC(=O)Nc1cccc(Nc2ncc(C3CC3)c(NCCCN3CCCC3=O)n2)c1 [Example 39, N-(3-{5-Cyclopropyl-4-[3-(2-oxo-pyrrolidin-1-yl)-propylamino]-pyrimidin-2-ylamino}-phenyl)-acetamide trifluoroacetate salt] |
| < 100 nM | O=C(NCCCNc1nc(Nc2ccc3ncsc3c2)ncc1C1CC1)C1CCC1 [Example 40, Cyclobutanecarboxylic acid {3-[2-(benzothiazol-6-ylamino)-5-cyclopropyl-pyrimidin-4-ylamino]-propyl}-amide. Hydrochloride salt] |
| < 100 nM | O=C(NCCCNc1nc(Nc2cccc(N3CCOCC3)c2)ncc1C1CC1)C1CCC1 [Example 41, Cyclobutanecarboxylic acid {3-[5-cyclopropyl-2-(3-morpholin-4-yl-phenylamino)-pyrimidin-4-ylamino]-propyl}-amide] |
| < 100 nM | O=C(NCCCNc1nc(Nc2cccc(Cn3ccnc3)c2)ncc1C1CC1)C1CCC1 [Example 42, Cyclobutanecarboxylic acid {3-[5-cyclopropyl-2-(3-imidazol-1-ylmethyl-phenylamino)-pyrimidin-4-ylamino]-propyl}-amide] |
| < 100 nM | CN1CCN(c2ccc(Nc3ncc(C4CC4)c(NCCCNC(=O)C4CCC4)n3)cn2)CC1 [Example 43, Cyclobutanecarboxylic acid (3-{5-cyclopropyl-2-[6-(4-methyl-piperazin-1-yl)-pyridin-3-ylamino]-pyrimidin-4-ylamino}-propyl)-amide] |
| 100 to 1000 nM | CN(C)c1cccc(Nc2ncc(C3CC3)c(NCCCNC(=O)c3cccs3)n2)c1 [Example 44, Thiophene-2-carboxylic acid {3-[5-cyclopropyl-2-(3-dimethylamino-phenylamino)-pyrimidin-4-ylamino]-propyl}-amide trifluoroacetic acid salt] |
| 100 to 1000 nM | CN1CCN(C(=O)c2cccc(Nc3ncc(C4CC4)c(NCCCNC(=O)c4cccs4)n3)c2)CC1 [Example 45, Thiophene-2-carboxylic acid (3-{5-cyclopropyl-2-[3-(4-methyl-piperazine-1-carbonyl)-phenylamino]-pyrimidin-4-ylamino}-propyl)-amide] |
| 100 to 1000 nM | O=C(NCCCNc1nc(Nc2cccc(N3CCOCC3)c2)ncc1C1CC1)c1cccs1 [Example 46, Thiophene-2-carboxylic acid {3-[5-cyclopropyl-2-(3-morpholin-4-yl-phenylamino)-pyrimidin-4-ylamino]-propyl}-amide trifluoroacetic acid salt] |
| < 100 nM | O=C(NCCCNc1nc(Nc2cccc(N3CCCC3=O)c2)ncc1C1CC1)C1CCC1 [Example 48, Cyclobutanecarboxylic acid (3-{5-cyclopropyl-2-[3-(2-oxo-pyrrolidin-1-yl)-phenylamino]-pyrimidin-4-ylamino}-propyl)-amide] |
| < 100 nM | O=C(NCCCNc1nc(Nc2cccc(NC(=O)N3CCCC3)c2)ncc1C1CC1)c1cccs1 [Example 49, Pyrrolidine-1-carboxylic acid [3-(5-cyclopropyl-4-{3-[(thiophene-2-carbonyl)-amino]-propylamino}-pyrimidin-2-ylamino)-phenyl]-amide] |
| < 100 nM | CC(=O)Nc1cccc(Nc2ncc(C3CC3)c(NCCCNC(=O)c3cccs3)n2)c1 [Example 51, Thiophene-2-carboxylic acid {3-[2-(3-acetylamino-phenylamino)-5-cyclopropyl-pyrimidin-4-ylamino]-propyl}-amide] |
| 100 to 1000 nM | O=C(NCCCNc1nc(Nc2ccccc2F)ncc1C1CC1)c1cccs1 [Example 52, Thiophene-2-carboxylic acid {3-[5-cyclopropyl-2-(2-fluoro-phenylamino)-pyrimidin-4-ylamino]-propyl}-amide] |
| 1000 to 10000 nM | O=C(NCCCNc1nc(Nc2ccc3cnccc3c2)ncc1C1CC1)c1cccs1 [Example 53, Thiophene-2-carboxylic acid {3-[5-cyclopropyl-2-(isoquinolin-6-ylamino)-pyrimidin-4-ylamino]-propyl}-amide] |
| < 100 nM | O=C(NCCCNc1nc(Nc2ccc(N3CCOCC3)nc2)ncc1C1CC1)c1cccs1 [Example 54, Thiophene-2-carboxylic acid {3-[5-cyclopropyl-2-(6-morpholin-4-yl-pyridin-3-ylamino)-pyrimidin-4-ylamino]-propyl}-amide] |
| 100 to 1000 nM | O=C(NCCCNc1nc(Nc2cccc(Cl)c2)ncc1C1CC1)c1cccs1 [Example 55, Thiophene-2-carboxylic acid {3-[2-(3-chloro-phenylamino)-5-cyclopropyl-pyrimidin-4-ylamino]-propyl}-amide] |
| 100 to 1000 nM | O=C(NCCCNc1nc(Nc2ccc3nccnc3c2)ncc1C1CC1)c1cccs1 [Example 56, Thiophene-2-carboxylic acid {3-[5-cyclopropyl-2-(quinoxalin-6-ylamino)-pyrimidin-4-ylamino]-propyl}-amide] |
| 100 to 1000 nM | O=C(NCCCNc1nc(Nc2ccccc2)ncc1C1CC1)c1cccs1 [Example 57, Thiophene-2-carboxylic acid [3-(5-cyclopropyl-2-phenylamino-pyrimidin-4-ylamino)-propyl]-amide] |
| 100 to 1000 nM | O=C(NCCCNc1nc(Nc2ccc(F)cc2)ncc1C1CC1)c1cccs1 [Example 58, Thiophene-2-carboxylic acid {3-[5-cyclopropyl-2-(4-fluoro-phenylamino)-pyrimidin-4-ylamino]-propyl}-amide] |
| 1000 to 10000 nM | Cc1ccccc1Nc1ncc(C2CC2)c(NCCCNC(=O)c2cccs2)n1 [Example 59, Thiophene-2-carboxylic acid [3-(5-cyclopropyl-2-o-tolylamino-pyrimidin-4-ylamino)-propyl]-amide] |
| 100 to 1000 nM | Cc1nc2cc(Nc3ncc(C4CC4)c(NCCCNC(=O)c4cccs4)n3)ccc2s1 [Example 60, Thiophene-2-carboxylic acid {3-[5-cyclopropyl-2-(2-methyl-benzothiazol-5-ylamino)-pyrimidin-4-ylamino]-propyl}-amide] |
| 100 to 1000 nM | N#Cc1cccc(Nc2ncc(C3CC3)c(NCCCNC(=O)c3cccs3)n2)c1 [Example 61, Thiophene-2-carboxylic acid {3-[2-(3-cyano-phenylamino)-5-cyclopropyl-pyrimidin-4-ylamino]-propyl}-amide] |
